Test results reported in US20240010684A1, “MASP INHIBITORY COMPOUNDS AND USES THEREOF” (BAYER AKTIENGESELLSCHAFT, priority 2020, published 2024).
Where a SMILES comes first, the peptide text is derived from it. Bridges are numbered along the chain shown (N, C = ends). Triazole bridges read from a SMILES are 1,4-linked. [ ]: non-standard residue; d: D form. Oic = O=C(O)[C@@H]1C[C@@H]2CCCC[C@@H]2N1; Dap(N3) = [N-]=[N+]=NC[C@H](N)C(=O)O; tBuAla = CC(C)(C)C[C@H](N)C(=O)O; Pen = CC(C)(S)[C@H](N)C(=O)O; NMeC = CN[C@@H](CS)C(=O)O; Pra = C#CC[C@H](N)C(=O)O; Dab = NCC[C@H](N)C(=O)O; Abu = CC[C@H](N)C(=O)O; Dap = NC[C@H](N)C(=O)O; PEG2 = NCCOCCOCCC(=O)O; Ahx = NCCCCCC(=O)O; Sar = CNCC(=O)O

Assays:
[1] = biological target: human MASP2 (Homo sapiens (Human), UniProt O00187); assay: Biochemical human MASP2 assay (FRET substrate); settings: Average IC50; recombinant human MASP2; read-out: human MASP2 IC50
human MASP2, sequence (O00187 other isoform, or with tags, fused parts or gaps): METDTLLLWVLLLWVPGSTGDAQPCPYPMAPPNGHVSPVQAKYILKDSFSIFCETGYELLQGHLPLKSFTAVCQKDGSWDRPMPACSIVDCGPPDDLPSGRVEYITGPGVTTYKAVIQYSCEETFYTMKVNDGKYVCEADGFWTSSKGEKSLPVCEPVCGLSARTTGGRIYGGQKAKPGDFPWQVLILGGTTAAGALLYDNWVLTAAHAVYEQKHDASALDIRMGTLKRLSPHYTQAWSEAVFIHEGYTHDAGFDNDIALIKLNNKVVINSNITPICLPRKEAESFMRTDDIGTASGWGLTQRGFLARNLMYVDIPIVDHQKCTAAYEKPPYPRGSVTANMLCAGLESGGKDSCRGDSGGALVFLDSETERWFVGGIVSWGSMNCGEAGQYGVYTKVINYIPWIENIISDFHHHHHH
Excerpt: The MASP1 or MASP2 expression vectors were transfected into the HEK293 (ATCC No. CRL-1573) cell line using Lipofectamine LTX® Reagent (Thermo-Fischer), as described by the manufacturer. The mature form of the recombinant human MASP1 and M[…] were secreted into the culture medium. The MASP1 and M[…] were purified from the conditioned media by affinity chromatography on Ni-NTA Superflow resin (Qiagen) as described by the manufacturer. 2.3 Biochemical Human MASP2 Assay […] The enzymatic reaction was initiated by addition of 25 μl of 60 μM solution of the FRET substrate DABCYL-[…]; […] The microtiter plate was incubated for 60-120 min at the temperature of 32 C. The increase of fluorescence intensity was measured in appropriate fluorescence plate reader (e.g. TECAN Ultra) using excitation wavelength of 340 nm and emission wavelength of 490 nm. IC50 values were calculated from percentage of inhibition of human MASP2 activity as a function of test compound concentration.

[2] = biological target: human MASP1 (Homo sapiens (Human), UniProt P48740); assay: Biochemical human MASP1 assay (FRET substrate); settings: Average IC50; recombinant human MASP1; read-out: human MASP1 IC50
human MASP1, sequence (P48740 other isoform, or with tags, fused parts or gaps): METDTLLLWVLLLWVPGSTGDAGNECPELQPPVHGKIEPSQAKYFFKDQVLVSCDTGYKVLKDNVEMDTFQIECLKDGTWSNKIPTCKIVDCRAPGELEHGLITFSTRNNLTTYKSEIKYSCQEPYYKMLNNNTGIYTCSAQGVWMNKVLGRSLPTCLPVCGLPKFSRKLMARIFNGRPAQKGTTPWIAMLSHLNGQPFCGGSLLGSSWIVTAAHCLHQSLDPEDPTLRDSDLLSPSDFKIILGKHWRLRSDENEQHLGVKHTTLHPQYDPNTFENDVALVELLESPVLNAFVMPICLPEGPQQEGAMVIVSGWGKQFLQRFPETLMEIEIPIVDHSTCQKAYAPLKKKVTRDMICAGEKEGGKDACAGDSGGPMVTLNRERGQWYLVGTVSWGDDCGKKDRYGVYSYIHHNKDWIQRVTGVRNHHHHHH
Excerpt: A truncated cDNA sequence of human MASP1 encoding the fragment corresponding to the amino acids 297-699 with a C-terminal His Tag and N-terminal Ig-kappa secretion signal (SEQ ID No: 2) was subcloned into the mammalian expression vector pcDNA3.1 (Invitrogen).
The MASP1 or MASP2 expression vectors were transfected into the HEK293 (ATCC No. CRL-1573) cell line using Lipofectamine LTX® Reagent (Thermo-Fischer), as described by the manufacturer. The mature form of the recombinant human MASP1 and MASP2 proteases were secreted into the culture medium. The MASP1 and MASP2 proteins were purified from the conditioned media by affinity chromatography on Ni-NTA Superflow resin (Qiagen) as described by the manufacturer.
2.2 Biochemical Human MASP1 Assay
Recombinant human MASP1 enzyme produced in the HEK 293 cells was diluted in the reaction buffer (50 mM HEPES pH 8,0; 100 mM NaCl; 0,01% CHAPS; 0.5 mM Gluthathione) to the concentration of 20 nM and 25 μl was transferred into each single well of 384-well white microtiter plate (Greiner Bio One 781075). 1 μl of the inhibitor compound solution (dissolved in DMSO, at the corresponding concentration) or pure DMSO as a control was added to the same wells. The enzymatic reaction was initiated by addition of 25 μl of 20 μM solution of the FRET substrate ABZ-[…]-Lys (Dnp)-NH2; (ABZ-2-aminobenzoyl; DNP 2,4-dinitrophenyl; custom synthesis by Jerini Peptide Technologies, Berlin) in the reaction buffer. The microtiter plate was incubated for 60-120 min at the temperature of 32 C. The increase of fluorescence intensity was measured in appropriate fluorescence plate reader (e.g. TECAN Ultra) using excitation wavelength of 320 nm and emission wavelength of 420 nm. IC50 values were calculated from percentage of inhibition of human MASP1 activity as a function of test compound concentration.

Compound	IC50 [1] [nM]	IC50 [2] [nM]
CC[C@H](C)[C@@H]1NC(=O)CNC(=O)CNC(=O)[C@H](C)NC(=O)C[C@@H](C(N)=O)NC(=O)[C@@H]2CCCN2C(=O)[C@H]([C@@H](C)CC)NC(=O)[C@H]2NC(=O)[C@H]([C@@H](C)CC)NC(=O)[C@@H]3C[C@@H]4CCCC[C@@H]4N3C(=O)[C@@H]3CCCN3C(=O)[C@H](CC(C)C)NC(=O)[C@H](CO)NC(=O)[C@H](CCCNC(=N)N)NC(=O)[C@H](CO)NC(=O)[C@H](CSSC2(C)C)NC1=O [Example 42] (AGGICSRSLP[Oic]I[Pen]IPD-NH2; disulfide 5-13; lactam N-16)	200	13
CC[C@H](C)[C@@H]1NC(=O)[C@H](CCN)NC(=O)[C@H](CN)NC(=O)[C@H]([C@@H](C)CC)NC(=O)[C@H]2NC(=O)[C@H]([C@@H](C)CC)NC(=O)[C@@H]3CCCN3C(=O)[C@@H]3CCCN3C(=O)[C@H](CC(C)(C)C)NC(=O)[C@H](CO)NC(=O)[C@H](CCCNC(=N)N)NC(=O)[C@H](CO)NC(=O)[C@H](CSSC2(C)C)NC1=O [Example 73] (cyclo(CSRS[tBuAla]PPI[Pen]I[Dap][Dab]I); disulfide 1-9)	430	42
CC[C@H](C)[C@@H]1NC(=O)[C@H](C)NC(=O)CCCCCNC(=O)[C@@H]2CCCN2C(=O)[C@H]([C@@H](C)CC)NC(=O)[C@@H]2CSSC[C@H](NC1=O)C(=O)N[C@@H](CO)C(=O)N[C@@H](CCCNC(=N)N)C(=O)N[C@@H](CO)C(=O)N[C@@H](CC(C)C)C(=O)N1CCC[C@H]1C(=O)N1[C@@H](C[C@@H]3CCCC[C@@H]31)C(=O)N[C@@H]([C@@H](C)CC)C(=O)N2 [Example 25] (cyclo(AICSRSLP[Oic]ICIP[Ahx]); disulfide 3-11)	610	60
CC[C@H](C)[C@@H]1NC(=O)CNC(=O)CNC(=O)[C@@H](C)NC(=O)[C@H](CC(=O)O)NC(=O)[C@@H]2CCCN2C(=O)[C@H]([C@@H](C)CC)NC(=O)[C@@H]2CSSC[C@H](NC1=O)C(=O)N[C@@H](CO)C(=O)N[C@@H](CCCNC(=N)N)C(=O)N[C@@H](CO)C(=O)N[C@@H](CC(C)C)C(=O)N1CCC[C@H]1C(=O)N1CCC[C@H]1C(=O)N[C@@H]([C@@H](C)CC)C(=O)N2 [Example 19] (cyclo(CIPD[dA]GGICSRSLPPI); disulfide 1-9)	210	49
CC[C@H](C)[C@@H]1NC(=O)CNC(=O)CCOCCOCCNC(=O)[C@H](CC(=O)O)NC(=O)[C@@H]2CCCN2C(=O)[C@H]([C@@H](C)CC)NC(=O)[C@@H]2CSSC[C@H](NC1=O)C(=O)N[C@@H](CO)C(=O)N[C@@H](CCCNC(=N)N)C(=O)N[C@@H](CO)C(=O)N[C@@H](CC(C)C)C(=O)N1CCC[C@H]1C(=O)N1CCC[C@H]1C(=O)N[C@@H]([C@@H](C)CC)C(=O)N2 [Example 24] (cyclo(CIPD[PEG2]GICSRSLPPI); disulfide 1-8)	210	110
CC[C@H](C)[C@@H]1NC(=O)[C@H](C)NC(=O)CNC(=O)[C@@H](N)Cn2cc(nn2)C[C@@H](C(N)=O)NC(=O)[C@@H]2CCCN2C(=O)[C@H]([C@@H](C)CC)NC(=O)[C@@H]2CSSC[C@H](NC1=O)C(=O)N[C@@H](CO)C(=O)N[C@@H](CCCNC(=N)N)C(=O)N[C@@H](CO)C(=O)N[C@@H](CC(C)(C)C)C(=O)N1CCC[C@H]1C(=O)N1CCC[C@H]1C(=O)N[C@@H]([C@@H](C)CC)C(=O)N2 [Example 81] (H-[Dap(N3)]GAICSRS[tBuAla]PPICIP[Pra]-NH2; triazole 1-16; disulfide 5-13)	230	18

The next molecules have a lower IC50 [1] than those just listed; values first:

IC50 [1] [nM]	IC50 [2] [nM]	Compound
180	9.7	CC[C@H](C)[C@@H]1NC(=O)CNC(=O)CN(C)C(=O)CCCCCNC(=O)CC[C@@H](C(N)=O)NC(=O)[C@@H]2CCCN2C(=O)[C@H]([C@@H](C)CC)NC(=O)[C@H]2NC(=O)[C@H]([C@@H](C)CC)NC(=O)[C@@H]3C[C@@H]4CCCC[C@@H]4N3C(=O)[C@@H]3CCCN3C(=O)[C@H](CC(C)C)NC(=O)[C@H](CO)NC(=O)[C@H](CCCNC(=N)N)NC(=O)[C@H](CO)NC(=O)[C@H](CSSC2(C)C)NC1=O [Example 76] ([Ahx][Sar]GICSRSLP[Oic]I[Pen]IPE-NH2; disulfide 5-13; lactam N-16)
130	16	CC[C@H](C)[C@@H]1NC(=O)[C@H](C)NC(=O)CNC(=O)[C@H](C)NC(=O)[C@H](CC(=O)O)NC(=O)[C@@H]2CCCN2C(=O)[C@H]([C@@H](C)CC)NC(=O)[C@@H]2CSSC[C@H](NC1=O)C(=O)N[C@@H](CO)C(=O)N[C@@H](CCCNC(=N)N)C(=O)N[C@@H](CO)C(=O)N[C@@H](CC(C)(C)C)C(=O)N1CCC[C@H]1C(=O)N1CCC[C@H]1C(=O)N[C@@H]([C@@H](C)CC)C(=O)N2C [Example 31] (cyclo(AGAICSRS[tBuAla]PPI[NMeC]IPD); disulfide 5-13)
90	7.1	CC[C@H](C)[C@@H]1NC(=O)CNC(=O)CCCCCNC(=O)C[C@@H](C(N)=O)NC(=O)[C@@H]2CCCN2C(=O)[C@H]([C@@H](C)CC)NC(=O)[C@@H]2CSSC[C@H](NC1=O)C(=O)N[C@@H](CO)C(=O)N[C@@H](CCCNC(=N)N)C(=O)N[C@@H](CO)C(=O)N[C@@H](CC(C)(C)C)C(=O)N1CCC[C@H]1C(=O)N1CCC[C@H]1C(=O)N[C@@H]([C@@H](C)CC)C(=O)N2C [Example 40] ([Ahx]GICSRS[tBuAla]PPI[NMeC]IPD-NH2; disulfide 4-12; lactam N-15)
88	26	CC[C@H](C)[C@@H]1NC(=O)CNC(=O)CNC(=O)[C@H](C)NC(=O)[C@@H](CC(=O)O)NC(=O)[C@@H]2CCCN2C(=O)[C@H]([C@@H](C)CC)NC(=O)[C@@H]2CSSC[C@H](NC1=O)C(=O)N[C@@H](CO)C(=O)N[C@@H](CCCNC(=N)N)C(=O)N[C@@H](CO)C(=O)N[C@@H](CC(C)C)C(=O)N1CCC[C@H]1C(=O)N1CCC[C@H]1C(=O)N[C@@H]([C@@H](C)CC)C(=O)N2 [Example 17] (cyclo(AGGICSRSLPPICIP[dD]); disulfide 5-13)
71	29	CC[C@H](C)[C@@H]1NC(=O)CNC(=O)[C@@H](N)CCC(=O)NCCCC[C@@H](C(N)=O)NC(=O)[C@H](CC(=O)O)NC(=O)[C@@H]2CCCN2C(=O)[C@H]([C@@H](C)CC)NC(=O)[C@H]2NC(=O)[C@H]([C@@H](C)CC)NC(=O)[C@@H]3C[C@@H]4CCCC[C@@H]4N3C(=O)[C@@H]3CCCN3C(=O)[C@H](CC(C)C)NC(=O)[C@H](CO)NC(=O)[C@H](CCCNC(=N)N)NC(=O)[C@H](CO)NC(=O)[C@H](CSSC2(C)C)NC1=O [Example 91] (H-EGICSRSLP[Oic]I[Pen]IPDK-NH2; lactam 1-16; disulfide 4-12)
65	16	CC[C@H](C)[C@@H]1NC(=O)CNC(=O)CCCCCNC(=O)[C@H](CC(=O)O)NC(=O)[C@@H]2CCCN2C(=O)[C@H]([C@@H](C)CC)NC(=O)[C@@H]2CSSC[C@H](NC1=O)C(=O)N[C@@H](CO)C(=O)N[C@@H](CCCNC(=N)N)C(=O)N[C@@H](CO)C(=O)N[C@@H](CC(C)(C)C)C(=O)N1CCC[C@H]1C(=O)N1CCC[C@H]1C(=O)N[C@@H]([C@@H](C)CC)C(=O)N2C [Example 30] (cyclo([Ahx]GICSRS[tBuAla]PPI[NMeC]IPD); disulfide 4-12)
62	28	CC[C@@H]1NC(=O)CCCCCNC(=O)[C@H](CC(=O)O)NC(=O)[C@@H]2CCCN2C(=O)[C@H]([C@@H](C)CC)NC(=O)[C@@H]2CSSC[C@H](NC(=O)[C@H]([C@@H](C)CC)NC1=O)C(=O)N[C@@H](CO)C(=O)N[C@@H](CCCNC(=N)N)C(=O)N[C@@H](CO)C(=O)N[C@@H](CC(C)(C)C)C(=O)N1CCC[C@H]1C(=O)N1CCC[C@H]1C(=O)N[C@@H]([C@@H](C)CC)C(=O)N2C [Example 33] (cyclo([Abu]ICSRS[tBuAla]PPI[NMeC]IPD[Ahx]); disulfide 3-11)
44	20	CC[C@@H]1NC(=O)CCCCCNC(=O)[C@H](CC(=O)O)NC(=O)[C@@H]2CCCN2C(=O)[C@H]([C@@H](C)CC)NC(=O)[C@H]2NC(=O)[C@H]([C@@H](C)CC)NC(=O)[C@@H]3CCCN3C(=O)[C@@H]3CCCN3C(=O)[C@H](CC(C)(C)C)NC(=O)[C@H](CO)NC(=O)[C@H](CCCNC(=N)N)NC(=O)[C@H](CO)NC(=O)[C@H](CSSC2(C)C)NC(=O)[C@H]([C@@H](C)CC)NC1=O [Example 38] (cyclo([Abu]ICSRS[tBuAla]PPI[Pen]IPD[Ahx]); disulfide 3-11)
